Experimental data taken from patent US4755526A, “Method of inhibiting aromatase” (Eli Lilly and Company, priority 1984, dated 1988).

How the values were obtained:
estrogen synthesis = test: Estrogen synthesis inhibition in rats (uterine weight and ovarian steroid concentrations); assay type: in vivo, female Wistar rats; details: for Mean Steroid Concentration, estradiol / Mean Steroid Concentration, estriol / Mean Steroid Concentration, estrone: ovaries; for Mean Uterine Weight: testosterone propionate-treated rats
Description: Test compounds were administered for seven days either daily by gavage in corn oil or as a component of the diet. Control animals received either corn oil or diet without the test compound. Beginning on the fourth day of the test, all animals treated with the test compound and one half of the control animals were given a subcutaneous injection of 1.0 mg of testosterone propionate in corn oil. The remaining control animals received only an equivalent volume of corn oil.
After two hours, the animals were killed by decapitation. Uteri were isolated, trimmed of extraneous connective tissue, and weighed. […] In the control animals treated with testosterone propionate, estrogens produced by aromatization stimulated the uterus resulting in an increase in weight.
The ovarian steroids were extracted with 1.5 ml of 9:1 (v/v) toluene/ethanol to which had been added 25 to 100 mcg each of unlabelled estradiol, estriol, and estrone, and approximately 1000 dpm of [^14 C]-estradiol. The samples were vortexed, centrifuged at 500×g for 10 minutes, and the organic phase was transferred to a conical vial. Two additional extractions were performed on the residue in the same way. The pooled organic extracts were evaporated for subsequent thin-layer chromatography.
Ovarian proteins were precipitated by the addition of 5.0 ml of ethanol to the remaining aqueous phase. After an overnight incubation at 4° C., the samples were centrifuged at 1500×g for 10 minutes. The supernatant was discarded, and the pellet was dissolved in 0.3N potassium hydroxide.
The organic residue from each above extraction was redissolved in 9:1 (v/v) dichloromethane/methanol. The solution of each sample was applied to separate silica gel thin layer chromatography plates which contained a fluorescent indicator. The plates were developed in the first dimension with 160:38:1.5:0.5 (v/v/v/v) dichloromethane/ethyl acetate/methanol/acetic acid to within 3 cm of the top of the plate. After air-drying, the plate was developed in the second dimension with 180:19:1 (v/v/v) dichloromethane/methanol/ammonium hydroxide. The plate was air-dried and viewed under 254 nm UV light.
The visible spots were marked and the plates were sprayed with primulin (0.001% in 4:1 v/v acetone/water) according to the method of Wright, J. Chromatography, 59, 220 (1971) which allowed for the identification of additional steroids under 365 nm UV light. The spots were scraped from the plate using a glass wool plugged Pasteur pipet attached to a vacuum line. The steroids were eluted directly into scintillation vials by the addition of 0.2 ml of dichloromethane followed by two washes each of 2.0 ml of methanol. The organic solvent was evaporated and 10.0 ml of scintillation fluid (Beckman Ready Solv-NA) was added to the vials. Samples were analyzed by liquid scintillation spectrometry. Corrections were made based on the recoveries of the [^14 C]-steroid. Steroid concentrations are expressed as femtomoles per milligram protein.

[1] = test system: DMBA-induced mammary tumors; test: DMBA-induced mammary tumor inhibition; assay type: in vivo, female Sprague-Dawley rats
Description: Mammary tumors were produced in female Sprague-Dawley rats which were 50-60 days old by the gavage administration of 20 mg of 7,12-dimethylbenz[a]anthracene (DMBA). About six weeks after DMBA administration, the mammary glands were palpated at weekly intervals for the appearance of tumors. Whenever one or more tumors appeared and were measurable in an animal, that animal was selected for experimentation. […] Each control and test group contained 8 animals. The test compound was administered either mixed into the food at a concentration of 300 ppm (corresponding to an appropriate daily dose of 30 mg/kg) or the compounds were dissolved or suspended in corn oil and administered once daily by gavage. Every experiment included a group of control rats having tumors and were either given food without the compound admixed or corn oil vehicle by gavage, depending on how the test compound was administered. […] The area of each tumor was calculated by multiplying the shortest and longest diameters of the tumor. The treatment and measurement of animals continued for 4-8 weeks at which time the final areas of the tumors were determined. For each compound (and control) at each dose level, the change in the mean tumor area was determined. The mean change was analyzed for its significance using Dunnett's t-test.

aromatase = molecular target: T1, aromatase (Rattus norvegicus, UniProt P22443); test: Aromatase inhibition in the rat ovarian microsome assay; assay type: biochemical; details: EC50: concentration required to achieve 50% inhibition of aromatase activity, substrate (androstenedione) concentration 0.1 μM
T1 construct: ovarian microsomes are obtained from rats treated with pregnant mares serum gonadotropin; from tissue; host or cells: ovarian microsomes of rats treated with pregnant mares serum gonadotropin
T1 sequence (P22443 1-508): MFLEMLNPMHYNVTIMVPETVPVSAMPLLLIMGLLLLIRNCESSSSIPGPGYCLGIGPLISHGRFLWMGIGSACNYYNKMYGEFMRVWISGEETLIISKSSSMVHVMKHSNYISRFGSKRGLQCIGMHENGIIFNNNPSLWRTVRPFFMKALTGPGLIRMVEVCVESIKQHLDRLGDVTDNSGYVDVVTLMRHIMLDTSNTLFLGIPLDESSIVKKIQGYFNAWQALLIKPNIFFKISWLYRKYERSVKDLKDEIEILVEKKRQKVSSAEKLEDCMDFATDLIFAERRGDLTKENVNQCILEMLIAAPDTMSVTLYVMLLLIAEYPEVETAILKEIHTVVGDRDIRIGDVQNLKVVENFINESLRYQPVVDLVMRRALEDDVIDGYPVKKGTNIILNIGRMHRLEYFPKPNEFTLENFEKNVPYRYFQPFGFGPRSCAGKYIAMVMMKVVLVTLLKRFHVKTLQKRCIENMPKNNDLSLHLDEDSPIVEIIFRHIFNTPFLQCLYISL
Description: In this test system, ovarian microsomes are obtained from rats treated with pregnant mares serum gonadotropin. Test compounds are added to reaction vials containing 0.1 μM 4-androstene-3,17-dione, 100,000 dpm 1,2[^3 H]-androstenedione, the microsomes and a NADPH generating system. The concentrations of the inhibitors tested ranged between 0.005 and 10 μM.

breast cancer = details: Cancer Research, Vol. 42, Suppl. 8: 3261s (1982); cited from earlier work
[2] = 30 ppm in feed (approximately 3 mg/kg/day)
[3] = 300 ppm in feed (approximately 30 mg/kg/day)
[4] = 300 ppm in diet, 4 weeks, control 62.8 to 1087.3 (Test II), 1087.0 (Test III)

Row | SMILES | Mean Steroid Concentration, estradiol (estrogen synthesis; [2]) | Mean Steroid Concentration, estriol (estrogen synthesis; [2]) | Mean Uterine Weight (estrogen synthesis; [2]) [mg] | Mean Steroid Concentration, estradiol (estrogen synthesis; [3]) | Mean Steroid Concentration, estriol (estrogen synthesis; [3]) | Mean Steroid Concentration, estrone (estrogen synthesis; [3]) | Mean Uterine Weight (estrogen synthesis; [3]) [mg] | Mean Tumor Area, Start ([1]; 300 ppm in diet, 5 weeks test) [mm^2] | Mean Tumor Area, Finish ([1]; 300 ppm in diet, 5 weeks, control 48.4 to 818.0) [mm^2] | Mean Steroid Concentration, estrone (estrogen synthesis; [2]) | Mean Tumor Area, Start ([1]; 5 mg/kg daily by gavage, 4 weeks test) [mm^2] | Mean Tumor Area, Finish ([1]; 5 mg/kg daily by gavage, 4 weeks, control 54.8 to 914.0) [mm^2] | Mean Tumor Area, Start ([1]; 30 mg/kg daily by gavage, 4 weeks test) [mm^2] | Mean Tumor Area, Finish ([1]; 30 mg/kg daily by gavage, 4 weeks, control 54.8 to 914.0) [mm^2] | Mean Tumor Area, Start ([1]; 300 ppm in diet, 6 weeks test) [mm^2] | Mean Tumor Area, Finish ([1]; 300 ppm in diet, 6 weeks, control 49.6 to 752.1) [mm^2] | Mean Tumor Area, Start ([1]; 300 ppm in diet, 4 weeks test) [mm^2] | Mean Tumor Area, Finish [1, 4] [mm^2] | EC50 (aromatase) [nM] | effect in treatment of breast cancer (breast cancer)
1 | Clc1ccc(C(c2ccccc2)n2ccnc2)cc1 (stereo not shown) [1-[(4-chlorophenyl)phenylmethyl]-1H--imidazole] | 0.92 femtomoles per milligram of protein | 0.75 femtomoles per milligram of protein | 114.8 | 0.00 femtomoles per milligram of protein | 0.35 femtomoles per milligram of protein | 0.11 femtomoles per milligram of protein | 68.4 | 49.3 | 467.0 | – | – | – | – | – | – | – | – | – | – | –
2 | Clc1ccc(C(c2ccc(Cl)cc2)n2ccnc2)cc1 [1-[bis(4-chlorophenyl)methyl]imidazole] | – | – | 85.3 | – | – | – | 66.0 | – | – | 0.09 femtomoles per milligram of protein | 44.8 | 346.0 | 62.4 | 276.0 | 57.4 | 40.8 | – | – | – | –
3 | O=[N+]([O-])c1ccc(C(c2ccc([N+](=O)[O-])cc2)n2ccnc2)cc1 [1-[bis(4-nitrophenyl)methyl]imidazole] | 0.92 femtomoles per milligram of protein | 1.65 femtomoles per milligram of protein | 105.0 | 0.28 femtomoles per milligram of protein | 0.83 femtomoles per milligram of protein | 0.94 femtomoles per milligram of protein | 110.8 | – | – | 1.58 femtomoles per milligram of protein | – | – | – | – | – | – | 64.5 | 18.9 | – | –
4 | Clc1ccc(C(c2ccc(Cl)cc2)(c2cccnc2)n2ccnc2)cc1 [3-[4,4'-dichloro-α-(1-imidazolyl)diphenylmethyl]pyridine] | 1.25 femtomoles per milligram of protein | 0.27 femtomoles per milligram of protein | 118.0 | 0.75 femtomoles per milligram of protein | 0.28 femtomoles per milligram of protein | 0.24 femtomoles per milligram of protein | 96.8 | – | – | 0.11 femtomoles per milligram of protein | – | – | – | – | – | – | 53.8 | 154.0 | – | –
5 | Clc1ccc(C(c2ccc(Cl)cc2)(c2cccnc2)n2cncn2)cc1 [3-[bis(4-chlorophenyl)-1H--1,2,4-triazol-1-ylmethyl]pyridine] | 1.83 femtomoles per milligram of protein | 0.36 femtomoles per milligram of protein | 150.8 | 1.18 femtomoles per milligram of protein | 0.13 femtomoles per milligram of protein | 0.06 femtomoles per milligram of protein | 85.6 | – | – | 0.06 femtomoles per milligram of protein | – | – | – | – | – | – | – | – | 60 | –
6 | c1ccc(C(c2ccccc2)(c2ccncc2)n2ccnc2)cc1 [4-(1H--imidazol-1-yl-diphenylmethyl)pyridine] | 0.78 femtomoles per milligram of protein | 0.35 femtomoles per milligram of protein | 156.0 | 0.61 femtomoles per milligram of protein | 0.29 femtomoles per milligram of protein | 0.23 femtomoles per milligram of protein | 110.8 | – | – | 0.25 femtomoles per milligram of protein | – | – | – | – | – | – | – | – | 12 | –
7 | CCC1(c2ccc(N)cc2)CCC(=O)NC1=O (stereo not shown) [aminoglutethimide] | – | – | – | – | – | – | – | – | – | – | – | – | – | – | – | – | – | – | – | beneficial effect in treatment of breast cancer
8 | C[C@]12C=CC(=O)C=C1CC[C@@H]1[C@@H]2CC[C@]2(C)OC(=O)CC[C@@H]12 [testolactone] | – | – | – | – | – | – | – | – | – | – | – | – | – | – | – | – | – | – | – | beneficial effect in treatment of breast cancer
